Measurements reported in patent US12377112B2, “Methods of treating neurocognitive disorders, chronic pain and reducing inflammation” (priority 2019, dated 2025).

Tested on: healthy subjects
Assay: Phase 1 study: Life Changes Inventory (LCI)
Assay type: in vivo, human
Source text: In some embodiments, the Life Changes Inventory (LCI) questionnaire is utilized to evaluate the safety and/or efficacy of psilocybin. The LCI is designed as a questionnaire to investigate those variables present in the day-to-day experience of adults that might relate either to stability or decline of intellectual ability.
The following list of outcome measures are non-exhaustive: • a. The short-term change from Baseline (Day −1 [Visit 2]) to Day 7 (Visit 5) in cognitive measures of attention, spatial and working memory and executive function was measured by a composite score of the CANTAB Panel (Spatial Working Memory [SWM], Rapid Visual Information Processing [RVP], Paired Associates Learning [PAL]). • b. The short-term change from Baseline (Day −1 [Visit 2]) to Day 7 (Visit 5) in Social Cognition Panel scales (Pictorial Empathy Test [PET], Reading the Mind in the eyes Test [RMET], Toronto Empathy Questionnaire [TEQ], Social Value Orientation [SVO], Scale of Social Responsibility [SSR]). • c. The change from Baseline (Day −1 [Visit 2]) to Day 28 (Visit 6) in cognitive measures of attention, spatial and working memory and executive function as measured by a composite score of the CANTAB Panel (SWM, RVP, PAL). • d. The long-term change from Baseline (Day −1 [Visit 2]) to Day 84 (Visit 7) in Social Cognition Panel scales (PET, RMET, TEQ, SVO, SSR). • e. Dose-related differences between cognitive effects of psilocybin at Baseline (Day −1 [Visit 2]), Day 7 (Visit 5) and Day 28 (Visit 6), as measured by a composite score of the CANTAB Panel (SWM, RVP, PAL). • f. Dose-related differences between psychological effects of psilocybin at Baseline (Day −1 [Visit 2]), Day 7 (Visit 5) and Day 84 (Visit 7), as measured by Social Cognition Panel scales (PET, RMET, TEQ, SVO, SSR). • g. Differences in cognitive effects of psilocybin between psilocybin-naïve and experienced subjects at Baseline (Day −1 [Visit 2]), Day 7 (Visit 5) and Day 28 (Visit 6), as measured by a composite score of the CANTAB Panel (SWM, RVP, PAL). • h. Differences in Positive and Negative Affect Schedule (PANAS) after study drug administration on Day 0 (Visit 3). • i. Differences between psilocybin and placebo in the Emotion Recognition Test (ERT), Intra-Extra Dimensional Set Shift (IED), One Touch Stockings (OTS), Verbal Fluency and Digit Span Forward at Day 7 (Visit 5). • j. A composite score of the CANTAB Panel, including the following tests: • i. Spatial Working Memory (SWM) (performed at Visit 2, Visit 5, and Visit 6). • ii. Rapid Visual Information Processing (RVP) (performed at Visit 2, Visit 5, and Visit 6). • iii. Paired Associates Learning (PAL) (performed at Visit 2, Visit 5, and Visit 6). • k. Cognitive Flexibility Panel • i. Emotion Recognition Task (ERT) (performed at Visit 5). • ii. Intra-Extra Dimensional Set Shift (IED) (performed at Visit 5). • iii. One Touch Stockings (OTS) (performed at Visit 5). • iv. Verbal Fluency (performed at Visit 5). • v. Digit Span Forward (performed at Visit 5). • l. Five Dimension Altered States of Consciousness questionnaire (5D-ASC) (performed at Visit 3). • m. PANAS (performed at Visit 2 and Visit 3). • n. NEO-Five Factor Inventory (NEO-FFI) (performed at Visit 2, Visit 5, and Visit 7). • o. Symptom Checklist-90 item (SCL-90) (performed at Visit 2, Visit 5, and Visit 7). • p. Life Changes Inventory (LCI): The LCI measures changes in attitudes and values after near-death experiences often used to evaluate personal transformation following spiritually oriented experiences and practices. (performed at Visit 5 and Visit 7). • q. Social Cognition Panel scales • i. Pictorial Empathy Test (PET) (performed at Visit 2, Visit 5, and Visit 7). • ii. Reading the Mind in the Eyes Test (RMET) (performed at Visit 2, Visit 5, and Visit 7). • iii. Social Value Orientation (SVO) (performed at Visit 2, Visit 5, and Visit 7). • iv. Toronto Empathy Questionnaire (TEQ) (performed at Visit 2, Visit 5, and Visit 7). • v. […]

[1] = Psilocybin 10 mg - Placebo, Day 7
[2] = Psilocybin 10 mg - Placebo, Day 84
[3] = Psilocybin 25 mg - Placebo, Day 7
[4] = Psilocybin 25 mg - Placebo, Day 84
[5] = Psilocybin (25 mg - 10 mg), Day 7
[6] = Psilocybin (25 mg - 10 mg), Day 84

CN(C)CCc1c[nH]c2cccc(OP(=O)(O)O)c12 [Psilocybin, psilocybin]
LCI appreciation for life, LS mean difference [1]: 0.6
LCI appreciation of death, LS mean difference [1]: 0.1
LCI concern for others, LS mean difference [1]: 0.4
LCI concern for worldly achievement, LS mean difference [1]: −0.2
LCI concern social, LS mean difference [1]: 0.1
LCI quest for meaning, LS mean difference [1]: 0.4
LCI religiousness, LS mean difference [1]: −0.1
LCI self-acceptance, LS mean difference [1]: 0.7
LCI spirituality, LS mean difference [1]: 0.3
LCI-absolute change, LS mean difference [1]: 0.4
LCI appreciation for life, LS mean difference [2]: 0.6
LCI appreciation of death, LS mean difference [2]: 0.2
LCI concern for others, LS mean difference [2]: 0.4
LCI concern for worldly achievement, LS mean difference [2]: −0.2
LCI concern social, LS mean difference [2]: 0.1
LCI quest for meaning, LS mean difference [2]: 0.4
LCI religiousness, LS mean difference [2]: −0.0
LCI self-acceptance, LS mean difference [2]: 0.5
LCI spirituality, LS mean difference [2]: 0.4
LCI-absolute change, LS mean difference [2]: 0.4
LCI appreciation for life, LS mean difference [3]: 0.5
LCI appreciation of death, LS mean difference [3]: 0.1
LCI concern for others, LS mean difference [3]: 0.4
LCI concern for worldly achievement, LS mean difference [3]: −0.1
LCI concern social, LS mean difference [3]: 0.2
LCI quest for meaning, LS mean difference [3]: 0.4
LCI religiousness, LS mean difference [3]: 0.0
LCI self-acceptance, LS mean difference [3]: 0.5
LCI spirituality, LS mean difference [3]: 0.2
LCI-absolute change, LS mean difference [3]: 0.3
LCI appreciation for life, LS mean difference [4]: 0.5
LCI appreciation of death, LS mean difference [4]: 0.2
LCI concern for others, LS mean difference [4]: 0.5
LCI concern for worldly achievement, LS mean difference [4]: −0.1
LCI concern social, LS mean difference [4]: 0.1
LCI quest for meaning, LS mean difference [4]: 0.4
LCI religiousness, LS mean difference [4]: 0.0
LCI self-acceptance, LS mean difference [4]: 0.5
LCI spirituality, LS mean difference [4]: 0.4
LCI-absolute change, LS mean difference [4]: 0.4
LCI appreciation for life, LS mean difference [5]: −0.2
LCI appreciation of death, LS mean difference [5]: −0.0
LCI concern for others, LS mean difference [5]: 0.0
LCI concern for worldly achievement, LS mean difference [5]: 0.1
LCI concern social, LS mean difference [5]: 0.1
LCI quest for meaning, LS mean difference [5]: 0.0
LCI religiousness, LS mean difference [5]: 0.1
LCI self-acceptance, LS mean difference [5]: −0.1
LCI spirituality, LS mean difference [5]: −0.1
LCI-absolute change, LS mean difference [5]: −0.1
LCI appreciation for life, LS mean difference [6]: −0.1
LCI appreciation of death, LS mean difference [6]: 0.0
LCI concern for others, LS mean difference [6]: 0.1
LCI concern for worldly achievement, LS mean difference [6]: 0.1
LCI concern social, LS mean difference [6]: 0.0
LCI quest for meaning, LS mean difference [6]: −0.0
LCI religiousness, LS mean difference [6]: 0.1
LCI self-acceptance, LS mean difference [6]: 0.0
LCI spirituality, LS mean difference [6]: −0.0
LCI-absolute change, LS mean difference [6]: −0.0
